This note sets out measurements from patent publication US20100129800A1, “POLYMERS AND THEIR USE AS FLUORESCENT LABELS” (priority 2007, published 2010).

SMILES strings stand for the structures. Like-named read-outs stand apart in the source and are kept apart here.

Data set [1] is described as follows: Fluorescence properties of the new compounds (excitation and emission wavelengths). The class given is physicochemical.
Data set [2] concerns c-myc promoter region G-quadruplex. Particulars: 1 μM ligand, 24 hours, room temperature. From the text: (§1) Compounds that bind nucleic acids may show preference for certain sequences. This preference can be used for the detection of specific nucleic acid sequences. One of the methods used to analyse the sequence specificity of DNA-binding compounds is the competition dialysis (c.f. Ren, J. et al., “Sequence and structural selectivity of nucleic acid binding ligands”, Biochemistry, 1999, vol. 38, pp […]). In this method different nucleic acid structures are dialyzed against a common compound solution. […] The amount of compound present in each DNA sequence is measured by fluorescence.
(§2) Furthermore, the inventors analyzed the binding properties of two dimers of the invention, Act-p-Act and Act-p-Qut, in front of several DNA sequences which are known in the state in the art to be biologically-relevant G-quadruplex structures: • 5′- […]-3′, (SEQ ID NO: 1 supra) as thrombin-binding aptamer: G-quadruplex; • 5′- […]-3′ (SEQ ID NO: 2) as a fragment of the promoter region of c-myc oncogen (c.f. Siddiqui-Jain A. et al., “Direct evidence for a G-quadruplex in a promoter region and its targeting with a small molecule to repress c-myc transcription”, Proc. Natl. Acad. Sci. USA, 2002, v. 99, p. […]
(§3) The concentration of the polymer (which is determined by fluorescence spectroscopy) indicates its specificity for a specific sequence: the more higher is the concentration, more specific is for said sequence.

The subject of data set [3] is human telomere G-quadruplex. As to conditions: 1 μM ligand, 24 hours, room temperature.
Source text: as §1, §2, §3

The subject of data set [4] is AT rich sequences. The data set is described as follows: Competitive dialysis. It is filed as binding.
Source text: as §1
(§4) We analysed the sequence specificity of the following polymers of the invention: Aca-p-Aca, QgpQgp(npa), Act-(p-Act)5, Act-p-Qut-p-Agt, Act-p-Qut-p-Act, Act-p-Qut-p-Nct, Qut-p-Qut-p-Qut, Act-p-Qut-p-Qut, and Act-p-Act-p-Act for DNA sequences: • duplex with an alternating CG sequence (5′-CGCGCG-T4-CGCGCG-3′); • duplex with a contiguous CG sequence (5′- CCCGGG-T4-CCCGGG-3′); • duplex with an alternating AT sequence (5′-[…]-T4-[…]); • duplex with a contiguous AT sequence (5′-[…]-T4-[…]); • a parallel triplex (5′-T20-3′-3′-T20-5′+A20); and • a G-quadruplex (thrombin-binding aptamer: 5′-[…]-3′ (SEQ ID NO 1); (c.f. Bock, L. C. et al., “Selection of single-stranded DNA molecules that bind and inhibit human thrombin”, Nature, 1992, vol. 355, pp 564-566).
(§5) Said DNA sequences have been used in order to determine: 1) the affinity of each one of the polymers for a specific tandem of nucleotides (CG, AT, GT); and 2) if the affinity for a specific tandem of nucleotides is affected by its distribution into the sequence (i.e., if the tandem is alternated or contiguous in the sequence).
(§6) The competition dialysis assay was performed placing into a beaker 200 ml of dialysate solution containing 1 μM of ligand in 2 mM sodium phosphate, 2 mM EDTA and 0.185 M NaCl pH 7.0. A volume of 0.1 ml (at 1 mg/ml) of each DNA samples was pipeted into a separate 0.1 ml dialysis unit (Mini Slide-A-lyzer 3.5K, Pierce). The dialysis units were placed in the beaker containing the dialysate solution using a floating device. The contents were allowed to equilibrate with continuous stirring for 24 hours at room temperature. At the end of the equilibration period, DNA samples were carefully removed to eppendorf tubes and were taken to a final concentration of 1% (w/v) sodium dodecyl sulfate (SDS). The concentration of polymer within each dialysis unit was then determined by fluorescence spectroscopy. The free polymer concentration was determined using an aliquot of the dialysate solution as well as with the solution coming from a blank (without DNA) dialysis unit.
as §3

The test system of data set [5] is duplex with a contiguous CG sequence (5′- CCCGGG-T4-CCCGGG-3′). The data set is described as follows: Competitive dialysis. The class given is binding.
Source text: as §1, §4, §5, §6, §3

Data set [6] has as its system parallel triplex (5′-T20-3′-3′-T20-5′+A20). The data set is described as follows: Competitive dialysis. It is filed as binding.
Source text: as §1, §4, §5, §6, §3

Data set [7] concerns G-quadruplex (thrombin-binding aptamer: 5′-GGTTGGTGTGGTTGG-3′). As to conditions: 1 μM ligand, 24 hours, room temperature.
Source text: as §1
(§7) We analysed the sequence specificity of the following polymers of the invention: Aca-p-Aca, QgpQgp(npa), Act-(p-Act)5, Act-p-Qut-p-Agt, Act-p-Qut-p-Act, Act-p-Qut-p-Nct, Qut-p-Qut-p-Qut, Act-p-Qut-p-Qut, and Act-p-Act-p-Act for DNA sequences: • duplex with an alternating CG sequence (5′-CGCGCG-T4-CGCGCG-3′); • duplex with a contiguous CG sequence (5′- CCCGGG-T4-CCCGGG-3′); • duplex with an alternating AT sequence (5′-[…]-T4-[…]); • duplex with a contiguous AT sequence (5′-[…]-T4-[…]); • a parallel triplex (5′-T20-3′-3′-T20-5′+A20); and • a G-quadruplex (thrombin-binding aptamer: 5′-[…]-3′ (SEQ ID NO 1); (c.f. Bock, L. C. et al., “Selection of single-stranded DNA molecules that bind and inhibit human thrombin”, Nature, 1992, vol. 355, pp 564-566). […]

Data set [8] concerns duplex with a contiguous AT sequence (5′-AAAATTTT-T4-AAAATTTT). Particulars: 1 μM ligand, 24 hours, room temperature.
Source text: as §1, §7

The mark [9] stands for this setting: 1 μM ligand, 24 hours, room temperature.

As to `CC(O)C(COP(=O)(O)OC(C)C(CO)NC(=O)c1c2ccccc2nc2ccccc12)NC(=O)c1c2ccccc2nc2c1[nH]c1ccccc12` (centres unmarked) [Example 27, O-{2-N-(Acridine-9-carbamoyl)-(1-hydroxybut-3-yl)} and O-{2-N-(10H-indolo[3,2-d]quinoline-11-carbamoyl)-3-hydroxybut-1-yl) phosphate], in data set [1] (free compound), the “Fluorescence Excitation (nm)” value is reported as 358 nm. Further, in data set [1] (free compound), the “Fluorescence emission (nm)” value came out at 438 nm. Also, the “affinity (concentration of polymer retained, by fluorescence)” value (“affinity” for short) in data set [2] and in data set [3] was “very high affinity” each time.
Turning to `CC(O)C(COP(=O)(O)OC(C)C(COP(=O)(O)OC(C)C(CO)NC(=O)c1c2ccccc2nc2ccccc12)NC(=O)c1c2ccccc2nc2c1[nH]c1ccccc12)NC(=O)c1c2ccccc2nc2c1[nH]c1ccccc12` (centres unmarked) [Example 29, O-{2-N-(Acridine-9-carbamoyl)-(1-hydroxybut-3-yl)} phosphate (3-1) O-{2-N-(10H-indolo[3,2-d]quinoline-11-carbamoyl)-3-oxybut-1-yl} phosphate (3-1) O-(2-N-{10H-indolo[3,2-d]quinoline-11-carbamoyl}-3-hydroxybut-1-yl)], the “Fluorescence Excitation (nm)” value in data set [1] (free compound) was 353 nm. Also, the “Fluorescence emission (nm)” value in data set [1] (free compound) was 440 nm. For the same compound, the “affinity” value in data set [4] (setting [9]), in data set [5] (setting [9]) and in data set [6] (setting [9]) was “higher affinity” throughout.
Take `CC(O)C(COP(=O)(O)OC(C)C(COP(=O)(O)OC(C)C(CO)NC(=O)c1c2ccccc2nc2c1[nH]c1ccccc12)NC(=O)c1c2ccccc2nc2c1[nH]c1ccccc12)NC(=O)c1c2ccccc2nc2c1[nH]c1ccccc12` (centres unmarked) [Example 42, O-{2-N-(10H-indolo[3,2-d]quinoline-11-carbamoyl)-3-oxybut-1-yl} phosphate (3-1) O-{2-N-(10H-indolo[3,2-d]quinoline-11-carbamoyl)-3-oxybut-1-yl} phosphate (3-1) O-(2-N-{10H-indolo[3,2-d]quinoline-11-carbamoyl}-3-hydroxybut-1-yl)]: the “Fluorescence Excitation (nm)” value in data set [1] (free compound) is reported as 359 nm. The “Fluorescence emission (nm)” value in data set [1] (free compound) is listed as 499 nm. The “affinity” value in data set [4] (setting [9]), in data set [5] (setting [9]) and in data set [6] (setting [9]) was “higher affinity” each time.
Consider `CC(O)C(COP(=O)(O)OC(C)C(COP(=O)(O)OC(C)C(CO)NC(=O)c1c2ccccc2nc2ccccc12)NC(=O)c1c2ccccc2nc2c1[nH]c1ccccc12)NC(=O)c1c2ccccc2nc2ccccc12` (centres unmarked) [Example 44, O-{2-N-(Acridine-9-carbamoyl)-(1-hydroxybut-3-yl)} phosphate (3-1) O-{2-N-(10H-indolo[3,2-d]quinoline-11-carbamoyl)-3-oxybut-1-yl} phosphate (3-1) O-{2-N-(acridine-9-carbamoyl)-(3-hydroxybut-1-yl)}], for which the “Fluorescence Excitation (nm)” value in data set [1] worked out at 359 nm. The “Fluorescence emission (nm)” value in data set [1] worked out at 438 nm. Also, the “affinity” value in data set [4], in data set [5] and in data set [6] was “higher affinity” in each case.
For the compound `CC(=O)NCCN(CC(=O)NCCN(CC(=O)NCCCCCCO)C(=O)CNC(=O)c1c2ccccc2nc2c1[nH]c1ccccc12)C(=O)CNC(=O)c1c2ccccc2nc2c1[nH]c1ccccc12` [Example 48], in data set [1] (free compound), the “Fluorescence Excitation (nm)” value turned out to be 349 nm and the “Fluorescence emission (nm)” value was 495 nm. In addition, in data set [7], the “affinity” value is reported as “high affinity”. Further, the “affinity” value in data set [8] was “high affinity”.
